Molecules are shown by their SMILES.

The series in a line: crystal formation of active ingredient mixtures from acetone after one week storage at 20° C. Format: physicochemical. As to conditions: stored one week at 20° C. The method, then:
The active ingredients were dissolved in acetone (see Table 1) and combined to give the mixing ratios (Table 2). The acetone was evaporated for two days at room temperature and then stripped off in vacuum for 5 h at 80° C. (method A). Temperature-insensitive active ingredients Were subsequently melted for an additional 15 h at 140° C. (method B). The samples were cooled to 20° C. in each case and stored for one week at 20° C.

Setting [1] is: method B (as A, then melted 15 h at 140° C.).

Take `Cn1cc(C(=O)Nc2ccccc2-c2cc(F)c(F)c(F)c2)c(C(F)F)n1` [Fungicide A, N-(3′,4′,5′-trifluorobiphenyl-2-yl)-3-difluoromethyl-1-methyl-1H-pyrazole-4-carboxamide]: the Crystal formation result under setting [1] was “Yes”.
On to `Fc1ccc([C@]2(Cn3cncn3)O[C@H]2c2ccccc2Cl)cc1` (racemic) [Epoxiconazole], for which the Crystal formation result under setting [1] is given as “Yes”.
Turning to `COCC(=O)N(c1c(C)cccc1C)C(C)C(=O)OC` (centres unmarked) [Metalaxyl], the Crystal formation result (method A (acetone evaporated, vacuum 5 h at 80° C.)) is listed as “Yes”.
For the molecule `O=C(Nc1ccccc1-c1ccc(Cl)cc1)c1cccnc1Cl` [Boscalid], the Crystal formation entry under setting [1] is on record as “Yes”.
Still for that read-out and setting: the value for `CC1(C)CCC(=Cc2ccc(Cl)cc2)C1(O)Cn1cncn1` (centres unmarked) [Triticonazole] was “Yes”.

The values above are taken from patent US8735321B2, “Process for the production of particles comprising active agrochemical ingredients in amorphous form” (priority 2008, dated 2014).
